Experimental data: patent US20160213635A1, “COMPOSITIONS USEFUL IN THE PREVENTION OR TREATMENT OF SKIN CANCER” (GIULIANI S.P.A., priority 2013, published 2016)

Test system: NHKs cells
Test: ELISA 8-OHdG determination after UVA irradiation and subsequent treatment with G01
Format: cell-based, human
Conditions: post-treatment 90 μM; UVA 10 J/cm^2; both post-treatment times 6 h and 24 h; vs cells only irradiated
Protocol: The NHKs cells were plated in the specific culture medium and maintained in culture for 24±2 h to allow adhesion to the plate. Then, the plates identified as +UVA and +UVA/G01 post were respectively exposed, in the irradiation medium, to a UVA dose of 10 J/cm^2. The irradiation medium was then replaced with the culture medium containing the compound of the invention G01, in a concentration of 90 μM. Based on preliminary results obtained on a broader time range, post-treatment times of 6 h and 24 h were selected, after which the plates were processed according to the procedure described in the work instruction specific for the DNA extraction. The determination of 8-OHdG, marker of DNA oxidative damage induced by UVA, was performed using a specific ELISA kit following the procedure described in the user manual.

C/C=C/C=C/C=C/C(=O)O [G01, 2,4,6-trans-octatrienoic acid]
amount of 8-OHdG produced by UVA radiation: significant reduction
